Source: patent US20220267298A1 (priority 2019, published 2022)
“And” between values parts separate entries of the source, which are not always exact repeats. Identical values can stand only once. Like-named read-outs stand apart in the source and are kept apart here.

How the values were obtained:
GRK2 [1] = molecular target: T1, GRK2 (Homo sapiens, UniProt P25098); test: biochemical
T1 sequence (P25098 1-689): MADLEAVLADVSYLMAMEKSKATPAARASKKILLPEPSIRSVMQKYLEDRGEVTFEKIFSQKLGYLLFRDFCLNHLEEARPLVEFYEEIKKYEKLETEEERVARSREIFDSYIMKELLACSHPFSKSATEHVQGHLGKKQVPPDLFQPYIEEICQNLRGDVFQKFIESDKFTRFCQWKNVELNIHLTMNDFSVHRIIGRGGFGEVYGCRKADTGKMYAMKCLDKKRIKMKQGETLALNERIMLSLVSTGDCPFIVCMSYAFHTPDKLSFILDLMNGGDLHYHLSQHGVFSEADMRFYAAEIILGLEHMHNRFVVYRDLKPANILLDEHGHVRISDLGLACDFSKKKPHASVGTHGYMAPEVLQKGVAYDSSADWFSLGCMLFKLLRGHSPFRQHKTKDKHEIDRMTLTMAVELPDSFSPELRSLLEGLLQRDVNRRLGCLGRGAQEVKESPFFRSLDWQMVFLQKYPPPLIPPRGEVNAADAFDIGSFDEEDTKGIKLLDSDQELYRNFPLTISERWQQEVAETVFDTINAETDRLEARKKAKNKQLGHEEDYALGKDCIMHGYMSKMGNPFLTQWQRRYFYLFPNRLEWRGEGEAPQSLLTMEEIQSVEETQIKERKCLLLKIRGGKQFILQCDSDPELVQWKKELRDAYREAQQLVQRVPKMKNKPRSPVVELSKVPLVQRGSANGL
Protocol: hGRK2 LANCE Ultra In Vitro Assay
G-protein coupled receptor kinases (GR Kinases) desensitize activated G-protein coupled receptors (GPCRs), by phosphorylation of cytoplasmic loops or carboxyl-terminal tails of GPCRs. GRK2 is one of the 6 different GR kinases and is implicated in heart failure and diabetes.
This assay is sensitive and requires as low as 10 nM enzyme, in a total volume of 10 μL. In addition, the ATP concentration can be varied over a broad range, without interfering with the assay or changing the assay condition. […] Testing inhibitors routinely at both high and low ATP concentrations also enables identification of potential non-ATP competitive inhibitors.
Paroxetine was used as the reference compound in this assay.
Test compounds were dissolved in DMSO at 1 mM and were 3-fold serial diluted. The compound DMSO solutions were then added (100 nL) into a plate well using an acoustic dispenser. To each well was then added 20 nM GRK2 (5 μL) in assay buffer (20 mM HEPES, pH 7.5, 10 mM MgCl2, 0.001% Tween-20®). The plate was sealed and centrifuged at 1000 rpm for 1 min.
The plate and wells containing a mixture of GRK2 and test compound were incubated at ambient temperature for 30 min (prior to initializing the enzymatic reaction).
Enzyme reactions were initiated by the addition of 4.9 μL Substrates/Eu-Ab mix to each well.
The plates were sealed and centrifuged at 1000 rpm for 1 min.
The enzyme reactions were quenched by addition of 10 μL of 12 mM EDTA in 1× LANCE detection solution to each well. The plates were then incubated at ambient temperature for 30 min.
The raw HTRF data were converted to % active as follows:
% active=(sample−NC)/(PC−NC)*100

GRK2 [2] = molecular target: T1, GRK2; test: biochemical; settings: GRK2 IC50 (μM), 10 nM GRK2; 10 uM ATP

Row | IC50 (GRK2 [1]) [nM] | IC50 (GRK2 [2]) | Structure (SMILES) | other results
1 | 5 | – | COc1cccc(Cn2cnc3ccc(-c4cn[nH]c4)c(C#N)c3c2=O)c1 [Compound 1, 3-(3-Methoxybenzyl)-4-oxo-6-(1H-pyrazol-4-yl)-3,4-dihydroquinazoline-5-carbonitrile] | –
2 | – | ~0.01 µM and 0.011 µM | COc1cccc(Cn2cnc3ccc(-c4cn[nH]c4)cc3c2=O)c1 [Compound 2, 3-(3-Methoxybenzyl)-6-(1H-pyrazol-4-yl)quinazolin-4(3H)-one] | IC50 (GRK2 [1]; 10 nM GRK2, ATP 30 or 600 μM, not stated which, read-out: GRK2 Lancer IC50): 6 nM
3 | 7 | – | COc1cccc(Cn2cnc3ccc(-c4cn[nH]c4)c(F)c3c2=O)c1 [Compound 3, 5-Fluoro-3-(3-methoxybenzyl)-6-(1H-pyrazol-4-yl)quinazolin-4(3H)-one] | –
4 | 9 | – | COc1cccc(Cn2cnc3ccc(-c4cn[nH]c4)c(O)c3c2=O)c1 [Compound 4, 5-Hydroxy-3-(3-methoxybenzyl)-6-(1H-pyrazol-4-yl)quinazolin-4(3H)-one] | –
5 | 9 | – | COc1cccc(Cn2cnc3ccc(-c4cn[nH]c4)c(OC)c3c2=O)c1 [Compound 5, 5-Methoxy-3-[(3-methoxyphenyl)methyl]-6-(1H-pyrazol-4-yl)quinazolin-4-one] | –
6 | 16 | – | COc1cccc(Cn2cnc3cc(OC)c(-c4cn[nH]c4)cc3c2=O)c1 [Compound 6, 7-Methoxy-3-[(3-methoxyphenyl)methyl]-6-(1H-pyrazol-4-yl)quinazolin-4-one] | –
7 | 16 | – | COc1cccc(Cn2cnc3ccc(-c4cn[nH]c4)c(Cl)c3c2=O)c1 [Compound 7, 5-Chloro-3-[(3-methoxyphenyl)methyl]-6-(1H-pyrazol-4-yl)quinazolin-4-one] | –
8 | 29 | – | CCOc1cccc(Cn2cnc3ccc(-c4cn[nH]c4)c(F)c3c2=O)c1 [Compound 8, 3-(3-Ethoxybenzyl)-5-fluoro-6-(1H-pyrazol-4-yl)quinazolin-4(3H)-one] | –
9 | 93 | – | COc1cccc(Cn2cnc3c(F)cc(-c4cn[nH]c4)cc3c2=O)c1 [Compound 9, 8-Fluoro-3-[(3-methoxyphenyl)methyl]-6-(1H-pyrazol-4-yl)quinazolin-4-one] | –
10 | – | < 0.01 µM | O=C(NCc1ccc(F)cc1)c1cccc(Cn2cnc3ccc(-c4cn[nH]c4)c(F)c3c2=O)c1 [Compound 57, 3-[[5-Fluoro-4-oxo-6-(1H-pyrazol-4-yl)quinazolin-3-yl]methyl]-N-[(4-fluorophenyl)methyl]benzamide] | –

The remaining lines, values behind:

Row | Structure (SMILES) | IC50 (GRK2 [1]) [nM] | IC50 (GRK2 [2]) | other results
11 | COc1cccc(Cn2c(C)nc3ccc(-c4ccnc(N)n4)cc3c2=O)c1 [Compound 10, 6-(2-Aminopyrimidin-4-yl)-3-[(3-methoxyphenyl)methyl]-2-methyl-quinazolin-4-one] | 371 | – | –
12 | COC(=O)C(c1cccc(OC)c1)n1cnc2ccc(-c3cn[nH]c3)cc2c1=O (stereo not shown) [Compound 11, Methyl 2-(3-methoxyphenyl)-2-[4-oxo-6-(1H-pyrazol-4-yl)quinazolin-3-yl]acetate] | 1410 | – | –
13 | COc1cccc(C(C(=O)O)n2cnc3ccc(-c4cn[nH]c4)cc3c2=O)c1 (stereo not shown) [Compound 12, (3-Methoxyphenyl)-2-[4-oxo-6-(1H-pyrazol-4-yl)quinazolin-3-yl]acetic acid] | 2550 | – | –
14 | COc1cccc(Cn2cnc3ccc(-c4cnc(N)nc4)cc3c2=O)c1 [Compound 52, 6-(2-Aminopyrimidin-5-yl)-3-(3-methoxybenzyl)quinazolin-4(3H)-one] | – | > 19 µM | –
15 | COc1cccc(Cn2cnc3ccc(-c4ccnc5[nH]ccc45)cc3c2=O)c1 [Compound 53, 3-[(3-Methoxyphenyl)methyl]-6-(1H-pyrrolo[2,3-b]pyridin-4-yl)quinazolin-4-one] | – | 2.45 µM | –
16 | COc1cc(Cn2cnc3ccc(-c4ccnc5[nH]ccc45)cc3c2=O)ccc1F [Compound 54, 3-[(4-Fluoro-3-methoxy-phenyl)methyl]-6-(1H-pyrrolo[2,3-b]pyridin-4-yl)quinazolin-4-one] | – | 12.3 µM | –
17 | NC1CCN(c2nc3ccc(-c4cn[nH]c4)cc3c(=O)n2Cc2cccc(C(=O)NCc3ccc(F)cc3)c2)C1 (stereo not shown) [Compound 55, 3-[[2-(3-Aminopyrrolidin-1-yl)-4-oxo-6-(1H-pyrazol-4-yl)quinazolin-3-yl]methyl]-N-[(4-fluorophenyl)methyl]benzamide] | – | 0.014 µM | –
18 | CC(c1cccc(C(=O)NCc2ccc(F)cc2)c1)n1cnc2ccc(-c3cn[nH]c3)cc2c1=O (stereo not shown) [Compound 61, N-[(4-Fluorophenyl)methyl]-3-[1-[4-oxo-6-(1H-pyrazol-4-yl)quinazolin-3-yl]ethyl]benzamide] | – | 0.007 µM | –
19 | O=c1c2cc(-c3cn[nH]c3)ccc2ncn1Cc1cccc(OCc2ccccc2)c1 [Compound 63, 3-[(3-Benzyloxyphenyl)methyl]-6-(1H-pyrazol-4-yl)quinazolin-4-one] | – | 0.065 µM | –
20 | O=c1c2cc(-c3cn[nH]c3)ccc2ncn1Cc1cccc(OC(F)(F)F)c1 [Compound 66, 6-(1H-Pyrazol-4-yl)-3-[[3-(trifluoromethoxy)phenyl]methyl]quinazolin-4-one] | – | 22.2 µM | –
21 | O=C(NCc1c(F)cccc1F)c1cc(F)cc(Cn2cnc3ccc(-c4cn[nH]c4)cc3c2=O)c1 [Compound 72, N-(2,6-Difluorobenzyl)-3-fluoro-5-((4-oxo-6-(1H-pyrazol-4-yl)quinazolin-3(4H)-yl)methyl)benzamide] | – | < 0.01 µM | –
22 | O=c1c2cc(-c3c[nH]nc3C(F)(F)F)ccc2ncn1Cc1c(F)cccc1F [Compound 77, 3-[(2,6-Difluorophenyl)methyl]-6-[3-(trifluoromethyl)-1H-pyrazol-4-yl]quinazolin-4-one] | – | > 20 µM | –
23 | O=c1c2cc(-c3cn[nH]c3)ccc2ncn1Cc1c(F)cccc1F [Compound 78, 3-[(2,6-Difluorophenyl)methyl]-6-(1H-pyrazol-4-yl)quinazolin-4-one] | – | 0.801 µM | –
24 | O=c1c2cc(-c3ccc(F)nc3)ccc2ncn1Cc1ccccc1 [Compound 82, 3-Benzyl-6-(6-fluoro-3-pyridyl)quinazolin-4-one] | – | > 100 µM | –
25 | O=C(NCc1ccc(F)cc1)c1cccc(-n2cnc3ccc(-c4cn[nH]c4)cc3c2=O)c1 [Compound C1, N-[(4-Fluorophenyl)methyl]-3-[4-oxo-6-(1H-pyrazol-4-yl)quinazolin-3-yl]benzamide] | – | 1.63 µM | –
26 | O=C(NCc1ccc(F)cc1F)c1ccc(Cn2cnc3ccc(-c4cn[nH]c4)cc3c2=O)cc1 [Compound C2, N-[(2,4-Difluorophenyl)methyl]-4-[[4-oxo-6-(1H-pyrazol-4-yl)quinazolin-3-yl]methyl]benzamide] | – | 4.34 µM | –
27 | O=C(NCc1c(F)cccc1F)c1ccc(Cn2cnc3ccc(-c4cn[nH]c4)cc3c2=O)cc1 [Compound C3, N-[(2,6-Difluorophenyl)methyl]-4-[[4-oxo-6-(1H-pyrazol-4-yl)quinazolin-3-yl]methyl]benzamide] | – | ~20 µM | –
28 | O=c1c2cc(-c3cn[nH]c3)ccc2ncn1Cc1cccc2c1OCO2 [Compound C4, 3-(1,3-Benzodioxol-4-ylmethyl)-6-(1H-pyrazol-4-yl)quinazolin-4-one] | – | 0.093 µM | –
29 | O=C(NCc1ccc(F)cc1)c1cc(Cn2cnc3ccc(-c4cn[nH]c4)cc3c2=O)ccn1 [Compound C5, N-[(4-Fluorophenyl)methyl]-4-[[4-oxo-6-(1H-pyrazol-4-yl)quinazolin-3-yl]methyl]pyridine-2-carboxamide] | – | 0.212 µM | –
30 | COCCNc1nccc(-c2ccc3ncn(Cc4cccc(OC)c4)c(=O)c3c2)n1 [Compound C6, 6-[2-(2-Methoxyethylamino)pyrimidin-4-yl]-3-[(3-methoxyphenyl)methyl]quinazolin-4-one] | – | > 50 µM | –
